Source: patent US20250127790A1, “COMBINATION THERAPY USING VPS34 INHIBITORS” (Deciphera Pharmaceuticals, LLC, priority 2021, published 2025)

How the values were obtained:
[1] = system: Renca renal cell carcinoma cells; test: IncuCyte live-cell imaging, cell confluence, Renca cells; assay type: cell-based; conditions: 2 μM Compound 1, ADU-S100, up to 72 hours
Protocol: Renca cells were treated with a combination of DMSO or 2 μM Compound 1 alone or in combination with STING agonist ADU-S100 for 24 hours. Treatment with 1 μM staurosporine was used as a positive control for apoptosis induction. To assess cell proliferation, 1000 cells/well were plated in 96-well plates. After 24 h, cells were treated with compounds in 100 μL complete medium. Phase-contrast images (10×) were acquired every 3 h for 24-72 h and cell confluence (%) was calculated using the IncuCyte S3 live-cell analysis system (Sartorius). For monitoring apoptosis, 5 μM of IncuCyte Caspase-3/7 Green Dye (#4440, Sartorius) was added to the medium at the time of treatment. Both phase-contrast and green fluorescent images were captured. Caspase 3/7 induction was calculated by counting green fluorescent objects per mm^2 and dividing it by the percentage of cell confluency.

YUMM 1.7 melanoma cells = test: qRT-PCR, combination with cGAMP, YUMM1.7 cells; assay type: cell-based, Mouse; conditions: 24 hours, 5 μM Compound 1 or 10 μM Compound 2, 10 mg/ml cGAMP
Protocol: (§1) YUMM1.7 cells were treated for 24 hours with DMSO or VPS34 inhibitors (5 μM Compound 1 or 10 μM Compound 2) in combination with 10 mg/ml STING agonist cGAMP (green bars). Cells were washed with PBS and RNA was isolated using the PureLink RNA kit (#12183018A, Thermo Fisher Scientific) according to the manufacturer's protocol. Genomic DNA was removed using DNA-binding columns (RNeasy plus kit, #74134, Qiagen) and/or DNase treatment (#12185010, Thermo Fisher Scientific). RNA was quantified using NanoDrop (Thermo Fisher Scientific) and 50 ng/μL RNA was used for cDNA synthesis with SuperScript IV VILO Master Mix (#11756050, Thermo Fisher Scientific). Quantitative RT-PCR (qRT-PCR) was run with diluted cDNA (1:25 or 1:12.5), PowerUp SYBR Green Master Mix (#A25741, Thermo Fisher Scientific), and 200 nM primers (see below) on a CFX Connect RT-PCR system (BioRad). Data was analyzed using the ΔΔCT method. Results are mean±SEM of three independent experiments.

[2] = system: A-498 renal cell carcinoma cells; test: Western blot, STING pathway proteins with siRNA knockdown, A-498 cells; assay type: cell-based; conditions: 24 h; for CGAS level / STING level / p-IRF3 level / p-STAT1 level / p-TKB1 level / p-IRF3 and p-STAT1 levels with siRNA knockdown of CGAS / p-TKB1 level with siRNA knockdown of CGAS / p-IRF3 and p-STAT1 levels with siRNA knockdown of STING / p-TBK1 level with siRNA knockdown of STING: 2 μM; for CGAS level / STING level / p-IRF3 level / p-STAT1 level / p-TKB1 level: vs DMSO alone; for p-IRF3 and p-STAT1 levels with siRNA knockdown of CGAS / p-TKB1 level with siRNA knockdown of CGAS: siCGAS; for p-IRF3 and p-STAT1 levels with siRNA knockdown of CGAS / p-TKB1 level with siRNA knockdown of CGAS / p-IRF3 and p-STAT1 levels with siRNA knockdown of STING / p-TBK1 level with siRNA knockdown of STING: vs compound alone; for p-IRF3 and p-STAT1 levels with siRNA knockdown of STING / p-TBK1 level with siRNA knockdown of STING: siSTING; for STING level with siRNA knockdown of TBK1 / CGAS level with siRNA knockdown of TBK1: siTBK1, 2 μM; for CGAS level with siRNA knockdown of TBK1: vs DMSO
Protocol: A-498 cells were transfected with scrambled siRNA control (siSCR) or siRNA targeting TBK1 (siTBK1), STING (siSTING) or CGAS (siCGAS). After 48 h cells were treated with DMSO or 2 μM of VPS34 inhibitor (Compound 1 or Compound 2) for 24 h. A-498 cells were washed in PBS and lysed in RIPA buffer (50 mM Tris HCl pH=7.4, 150 mM NaCl, 1% Triton X-100, 0.5% Na-deoxycholate, 0.1% SDS) containing protease inhibitor cocktail (#11836170001, Roche), and phosphatase inhibitor (#11836170001, Roche) for 10 min at 4° C. After centrifugation at 15000 rpm for 10 min at 4° C., the supernatant was obtained, and protein concentration was quantified using BCA assay (#23225, Thermo Fisher). Equal amounts were mixed with 0.1 M DTT and LDS Sample Buffer (#84788, Thermo Fisher), heated for 5 min at 90° C. before loading onto 4-12% Bis-Tris gels. Proteins were transferred to nitrocellulose membranes. Membranes were blocked in 5% non-fat dry milk in TBS with 0.05% Tween (TBS-T) for 1 h at RT, washed in TBS-T, and probed with primary antibodies shaking overnight at 4° C. After washing in TBS-T, membranes were incubated with IRDye 800CW goat anti-rabbit or IRDye 680RD donkey anti-mouse IgG (H+L) (#926-32211 and #926-68072, respectively, LI-COR, 1:10,000 dilution) secondary antibody in Intercept blocking buffer (#927-60001, LI-COR) for 1 h at RT. After washing in TBS-T, membranes were imaged using the Odyssey CLx (LI-COR). Band intensities were quantified using Image Studio Lite software version 5.2.5 (LI-COR).

4T1 breast cancer cells = test: qRT-PCR, combination with cGAMP, 4T1 cells; assay type: cell-based, Mouse; conditions: 24 hours, 5 μM Compound 1 or 10 μM Compound 2, 10 mg/ml cGAMP
Protocol: as §1, with “4T1” for “YUMM1.7”

[3] = system: A-498 renal cell carcinoma cells; test: Cytokine secretion assay (MSD) with siRNA knockdown, A-498 cells; assay type: cell-based, human; conditions: 24 h; for CCL5 and CXCL10 secretion with siRNA knockdown of CGAS: siCGAS; for CCL5 and CXCL10 secretion with siRNA knockdown of CGAS / increase in CCL5 protein secretion / increase in CXCL10 protein secretion / CCL5 and CXCL10 protein secretion with siRNA knockdown of STING: 2 μM; for CCL5 and CXCL10 secretion with siRNA knockdown of CGAS / CCL5 and CXCL10 protein secretion with siRNA knockdown of STING / CCL5 or CXCL10 protein secretion with siRNA knockdown of TBK1: vs compound alone; for increase in CCL5 protein secretion / increase in CXCL10 protein secretion: siRNA against non-specific controls (siSCR); for CCL5 and CXCL10 protein secretion with siRNA knockdown of STING: siSTING; for CCL5 or CXCL10 protein secretion with siRNA knockdown of TBK1: siTBK1, 2 μM
Protocol: A-498 cells were transfected with scrambled siRNA control (siSCR) or siRNA targeting TBK1 (siTBK1), STING (siSTING) or CGAS (siCGAS). After 48 h cells were treated with DMSO or 2 μM of VPS34 inhibitor (Compound 1 or Compound 2) for 24 h. Cell culture medium was centrifuged at 1600 rpm for 10 min at 4° C. and obtained supernatant stored at −80° C. Cytokine levels were quantified using following Meso Scale Discovery (MSD) assays: human R-PLEX RANTES/CCL5 (#F21ZN), U-PLEX CXCL10/IP-10 (#K151UFK). Assays were run on the SECTOR Quickplex Imager and analyzed using Discovery Workbench version 4.0 (MSD).

Nc1ncnc2c1ncn2[C@@H]1O[C@@H]2COP(=O)([S-])O[C@@H]3[C@H](O)[C@@H](COP([O-])(=S)O[C@H]2[C@H]1O)O[C@H]3n1cnc2c(N)ncnc21.[Na+].[Na+] (stereo partly drawn) [ADU-S100, reference compound]
cell confluence [1]: no effect

C[C@@H]1COCCN1c1cc(N2CCCC[C@@H]2C(F)(F)F)[nH]c(=O)c1 [Compound 1, 4-((R)-3-methylmorpholino)-6-((R)-2-(trifluoromethyl)piperidin-1-yl)pyridin-2(1H)-one]
cell confluence [1]: decreased
CCL5 mRNA expression (YUMM 1.7 melanoma cells): increased
CXCL10 mRNA expression (YUMM 1.7 melanoma cells): did not increase
CGAS level [2]: mild increase
STING level [2]: increase
p-IRF3 level [2]: strong increases
p-STAT1 level [2]: strong increases
p-TKB1 level [2]: increase
p-IRF3 and p-STAT1 levels with siRNA knockdown of CGAS [2]: complete loss
p-TKB1 level with siRNA knockdown of CGAS [2]: decrease
p-IRF3 and p-STAT1 levels with siRNA knockdown of STING [2]: complete loss
p-TBK1 level with siRNA knockdown of STING [2]: decrease
STING level with siRNA knockdown of TBK1 [2]: increase
CGAS level with siRNA knockdown of TBK1 [2]: increase
CCL5 mRNA expression (4T1 breast cancer cells): increased
CXCL10 mRNA expression (4T1 breast cancer cells): increased
CCL5 and CXCL10 secretion with siRNA knockdown of CGAS [3]: down to the levels of DMSO controls
increase in CCL5 protein secretion [3]: ~2 fold
increase in CXCL10 protein secretion [3]: ~2 fold
CCL5 and CXCL10 protein secretion with siRNA knockdown of STING [3]: down to the levels of DMSO controls
CCL5 or CXCL10 protein secretion with siRNA knockdown of TBK1 [3]: non-significant changes

C[C@@H]1COCCN1c1cc(=O)n2c(n1)N(Cc1cncc(Cl)c1)[C@H](C(F)(F)F)CC2 [Compound 2, (S)-9-((5-chloropyridin-3-yl)methyl)-2-((R)-3-methylmorpholino)-8-(trifluoromethyl)-6,7,8,9-tetrahydro-4H-pyrimido[1,2-a]pyrimidin-4-one]
CCL5 mRNA expression (YUMM 1.7 melanoma cells): increased
CXCL10 mRNA expression (YUMM 1.7 melanoma cells): did not increase
CGAS level [2]: mild increase
STING level [2]: increase
p-IRF3 level [2]: strong increases
p-STAT1 level [2]: strong increases
p-TKB1 level [2]: increase
p-IRF3 and p-STAT1 levels with siRNA knockdown of CGAS [2]: complete loss
p-TKB1 level with siRNA knockdown of CGAS [2]: decrease
p-IRF3 and p-STAT1 levels with siRNA knockdown of STING [2]: complete loss
p-TBK1 level with siRNA knockdown of STING [2]: decrease
STING level with siRNA knockdown of TBK1 [2]: increase
CGAS level with siRNA knockdown of TBK1 [2]: increase
CCL5 mRNA expression (4T1 breast cancer cells): increased
CXCL10 mRNA expression (4T1 breast cancer cells): increased
CCL5 and CXCL10 secretion with siRNA knockdown of CGAS [3]: down to the levels of DMSO controls
increase in CCL5 protein secretion [3]: ~2 fold
increase in CXCL10 protein secretion [3]: ~2 fold
CCL5 and CXCL10 protein secretion with siRNA knockdown of STING [3]: down to the levels of DMSO controls
CCL5 or CXCL10 protein secretion with siRNA knockdown of TBK1 [3]: non-significant changes
